Experimental data published in patent US20100076015A1, “Aminopyridine Derivatives” (VANTIA LIMITED, priority 2008, published 2010).

Biological target: T1, Human KLK1 (Homo sapiens, UniProt P06870)
T1 construct: purchased Callbiochem (Calbiochem)
Test: Determination of the IC50 for KLK1 (fluorogenic substrate H-DVal-Leu-Arg-AFC)
Assay type: biochemical
Conditions: 37° C.
Procedure: Determination of the IC50 for KLK1
KLK1 inhibitory activity in vitro was determined using standard published methods (see e.g. Johansen et al., Int. J. Tiss. Reac. 1986, 8, 185; Shori et al., Biochem. Pharmacol., 1992, 43, 1209; Stürzebecher et al., Biol. Chem. Hoppe-Seyler, 1992, 373, 1025). Human KLK1 (Callbiochem) was incubated at 37° C. with the fluorogenic substrate H-DVal-Leu-Arg-AFC and various concentrations of the test compound. Residual enzyme activity (initial rate of reaction) was determined by measuring the change in optical absorbance at 410 nm and the IC50 value for the test compound was determined.

T1 sequence (P06870 25-262): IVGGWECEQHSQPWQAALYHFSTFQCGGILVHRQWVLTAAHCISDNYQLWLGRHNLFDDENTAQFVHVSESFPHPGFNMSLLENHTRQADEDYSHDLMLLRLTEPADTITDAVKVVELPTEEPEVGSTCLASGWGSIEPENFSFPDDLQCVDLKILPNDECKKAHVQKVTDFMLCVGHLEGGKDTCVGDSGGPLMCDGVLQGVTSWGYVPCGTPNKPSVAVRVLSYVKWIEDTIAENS

Question: For `Nc1ccc(CNC(=O)[C@H](Cc2cccc3ccccc23)NC(=O)[C@H]2CCCCN2)cn1` [Example 75, (R)-Piperidine-2-carboxylic acid {(S)-1-[(6-amino-pyridin-3-ylmethyl)-carbamoyl]-2-naphthalen-1-ylethyl}-amide], which IC50 is on record?
Answer: 2.2 nM

Question: Which IC50 does the source give for `Nc1ccc(CNC(=O)[C@H](Cc2ccccc2Cl)NC(=O)[C@H]2CCCCN2)cn1` [Example 76, (R)-Piperidine-2-carboxylic acid [(S)-1-[(6-amino-pyridin-3-ylmethyl)-carbamoyl]-2-(2-chloro-phenyl)-ethyl]-amide] here?
Answer: 21.8 nM

Question: Which IC50 does the source give for `Nc1ccc(CNC(=O)[C@H](Cc2cccc(Cl)c2)NC(=O)[C@H]2CCCCN2)cn1` [Example 77, (R)-Piperidine-2-carboxylic acid [(S)-1-[(6-amino-pyridin-3-ylmethyl)-carbamoyl]-2-(3-chloro-phenyl)-ethyl]-amide] here?
Answer: 2.9 nM

Question: `Nc1ccc(CNC(=O)[C@H](Cc2csc3ccccc23)NC(=O)[C@H]2CCCCN2)cn1` [Example 78, (R)-Piperidine-2-carboxylic acid {(S)-1-[(6-amino-pyridin-3-ylmethyl)-carbamoyl]-2-benzo[b]thiophen-3-yl-ethyl}-amide] was tested. Which IC50 did it give?
Answer: 1.2 nM

Question: `Nc1ccc(CNC(=O)[C@H](Cc2ccc(F)c(F)c2)NC(=O)[C@H](N)Cc2ccccc2)cn1` [Example 80, (R)-2-Amino-N-[(S)-1-[(6-amino-pyridin-3-ylmethyl)-carbamoyl]-2-(3,4-difluoro-phenyl)-ethyl]-3-phenyl-propionamide] was tested. Which IC50 did it give?
Answer: 16.1 nM

Question: How did the IC50 turn out when `CN[C@H](Cc1ccccc1)C(=O)N[C@@H](Cc1ccc(F)c(F)c1)C(=O)NCc1ccc(N)nc1` [Example 81, (R)—N-[(S)-1-[(6-Amino-pyridin-3-ylmethyl)carbamoyl]-2-(3,4-difluoro-phenyl)-ethyl]-2-methylamino-3-phenyl-propionamide] was run?
Answer: 5 nM

Question: For `CCC(C)[C@H](NC)C(=O)N[C@@H](Cc1ccc(F)c(F)c1)C(=O)NCc1ccc(N)nc1` (stereo partly drawn) [Example 82, (S)-3-Methyl-2-methylamino-pentanoic acid [(S)-1-[(6-amino-pyridin-3-ylmethyl)-carbamoyl]-2-(3,4-difluoro-phenyl)-ethyl]-amide], which IC50 is on record?
Answer: 11.2 nM

Question: For `CCC(C)[C@H](N)C(=O)N[C@@H](Cc1ccc(F)c(F)c1)C(=O)NCc1ccc(N)nc1` (stereo partly drawn) [Example 83, (S)-2-Amino-3-methyl-pentanoic acid [(S)-1-[(6-amino-pyridin-3-ylmethyl)-carbamoyl]-2-(3,4-difluoro-phenyl)-ethyl]-amide], which IC50 is on record?
Answer: 158 nM

Question: For `CN[C@H](C)C(=O)N[C@@H](Cc1ccc(F)c(F)c1)C(=O)NCc1ccc(N)nc1` [Example 84, (R)—N-[(S)-1-[(6-Amino-pyridin-3-ylmethyl)-carbamoyl]-2-(3,4-difluoro-phenyl)-ethyl]-2-methylamino-propionamide], which IC50 is on record?
Answer: 8 nM

Question: Which IC50 does the source give for `CN[C@@H](C)C(=O)N[C@@H](Cc1ccc(F)c(F)c1)C(=O)NCc1ccc(N)nc1` [Example 85, (S)—N-[(S)-1-[(6-Amino-pyridin-3-ylmethyl)-carbamoyl]-2-(3,4-difluoro-phenyl)-ethyl]-2-methylamino-propionamide] here?
Answer: 13.9 nM

Question: `CNC(C)(C)C(=O)N[C@@H](Cc1ccc(F)c(F)c1)C(=O)NCc1ccc(N)nc1` [Example 86, N-[(S)-1-[(6-Amino-pyridin-3-ylmethyl)-carbamoyl]-2-(3,4-difluoro-phenyl)-ethyl]-2-methyl-2-methylamino-propionamide] was tested. Which IC50 did it give?
Answer: 15.5 nM

Question: How did the IC50 turn out when `CN[C@H](C)C(=O)N[C@@H](Cc1ccc(F)cc1)C(=O)NCc1ccc(N)nc1` [Example 87, (R)—N-[(S)-1-[(6-Amino-pyridin-3-ylmethyl)-carbamoyl]-2-(4-fluoro-phenyl)-ethyl]-2-methylamino-propionamide] was run?
Answer: 6.4 nM

Question: How did the IC50 turn out when `CN[C@@H](C)C(=O)N[C@@H](Cc1ccc(F)cc1)C(=O)NCc1ccc(N)nc1` [Example 88, (S)—N-[(S)-1-[(6-Amino-pyridin-3-ylmethyl)-carbamoyl]-2-(4-fluoro-phenyl)-ethyl]-2-methylamino-propionamide] was run?
Answer: 6.7 nM
